# Structures can show the parent of a compound that is named as a salt.
# Assay: Biliary excretion and bile flow after i.v. TFA-IOP (100 umol/kg) or IOP (100 in text, 104 umol/kg in tables) in rats
# Details: rat; for dose excreted at 10 min / dose excreted at 20 min / dose excreted at 0.5 h / dose excreted at 40 min / dose excreted at 50 min / dose excreted at 1 h / dose excreted at 70 min / dose excreted at 80 min / dose excreted at 1.5 h / dose excreted at 0 h: in vivo, iv, 100 umol/kg
# Method: Tissues examined included liver, spleen, upper GI, lower GI, kidney, lung and heart. The length of each study was 90 minutes, during which time bile, urine and plasma samples were taken to monitor uptake and excretion. NMR relaxation rates for liver and plasma were also examined to note whether uptake of either compound might possible alter these parameters.
# [1] = i.v., period 10-0 min (pre-injection)
structure (smiles),measurement,setting,value
"CCC(Cc1c(I)cc(I)c(NC(=O)C(F)(F)F)c1I)C(=O)O (centres unmarked) [TFA-IOP, N-trifluoroacetyl-iopanoic acid]",Bile flow,"i.v., 0-10 min",.04071 mL/min
same,Bile flow per kg b.w.,"i.v., 0-10 min",.09359 ml/min per kg b.w.
same,Bile flow per kg l.w.,"i.v., 0-10 min",3.127 ml/min per kg l.w.
same,Biliary excretion rate,"i.v., 0-10 min",.123 µmol/min
same,Biliary excretion rate per kg b.w.,"i.v., 0-10 min",.282 umoles/min per kg b.w.
same,Biliary excretion rate per kg l.w.,"i.v., 0-10 min",9.411 umoles/min per kg l.w.
same,umoles in bile sample,"i.v., 0-10 min",1.23 UMOLES
same,Bile flow,"i.v., 10-20 min",.03675 mL/min
same,Bile flow per kg b.w.,"i.v., 10-20 min",.08448 ml/min per kg b.w.
same,Bile flow per kg l.w.,"i.v., 10-20 min",2.823 ml/min per kg l.w.
same,Biliary excretion rate,"i.v., 10-20 min",.212 µmol/min
same,Biliary excretion rate per kg b.w.,"i.v., 10-20 min",.488 umoles/min per kg b.w.
same,Biliary excretion rate per kg l.w.,"i.v., 10-20 min",16.308 umoles/min per kg l.w.
same,umoles in bile sample,"i.v., 10-20 min",2.12 UMOLES
same,Bile flow,"i.v., 20-30 min",.04050 mL/min
same,Bile flow per kg b.w.,"i.v., 20-30 min",.09310 ml/min per kg b.w.
same,Bile flow per kg l.w.,"i.v., 20-30 min",3.111 ml/min per kg l.w.
same,Biliary excretion rate,"i.v., 20-30 min",.261 µmol/min
same,Biliary excretion rate per kg b.w.,"i.v., 20-30 min",.599 umoles/min per kg b.w.
same,Biliary excretion rate per kg l.w.,"i.v., 20-30 min",20.020 umoles/min per kg l.w.
same,umoles in bile sample,"i.v., 20-30 min",2.61 UMOLES
same,Bile flow,"i.v., 30-40 min",.02992 mL/min
same,Bile flow per kg b.w.,"i.v., 30-40 min",.06878 ml/min per kg b.w.
same,Bile flow per kg l.w.,"i.v., 30-40 min",2.298 ml/min per kg l.w.
same,Biliary excretion rate,"i.v., 30-40 min",.233 µmol/min
same,Biliary excretion rate per kg b.w.,"i.v., 30-40 min",.537 umoles/min per kg b.w.
same,Biliary excretion rate per kg l.w.,"i.v., 30-40 min",17.931 umoles/min per kg l.w.
same,umoles in bile sample,"i.v., 30-40 min",2.33 UMOLES
same,Bile flow,"i.v., 40-50 min",.03047 mL/min
same,Bile flow per kg b.w.,"i.v., 40-50 min",.07005 ml/min per kg b.w.
same,Bile flow per kg l.w.,"i.v., 40-50 min",2.34 ml/min per kg l.w.
same,Biliary excretion rate,"i.v., 40-50 min",.233 µmol/min
same,Biliary excretion rate per kg b.w.,"i.v., 40-50 min",.535 umoles/min per kg b.w.
same,Biliary excretion rate per kg l.w.,"i.v., 40-50 min",17.882 umoles/min per kg l.w.
same,umoles in bile sample,"i.v., 40-50 min",2.33 UMOLES
same,Bile flow,"i.v., 50-60 min",.02817 mL/min
same,Bile flow per kg b.w.,"i.v., 50-60 min",.06476 ml/min per kg b.w.
same,Bile flow per kg l.w.,"i.v., 50-60 min",2.164 ml/min per kg l.w.
same,Biliary excretion rate,"i.v., 50-60 min",.238 µmol/min
same,Biliary excretion rate per kg b.w.,"i.v., 50-60 min",.548 umoles/min per kg b.w.
same,Biliary excretion rate per kg l.w.,"i.v., 50-60 min",18.307 umoles/min per kg l.w.
same,umoles in bile sample,"i.v., 50-60 min",2.38 UMOLES
same,Bile flow,"i.v., 60-70 min",.02721 mL/min
same,Bile flow per kg b.w.,"i.v., 60-70 min",.06255 ml/min per kg b.w.
same,Bile flow per kg l.w.,"i.v., 60-70 min",2.09 ml/min per kg l.w.
same,Biliary excretion rate,"i.v., 60-70 min",.146 µmol/min
same,Biliary excretion rate per kg b.w.,"i.v., 60-70 min",.336 umoles/min per kg b.w.
same,Biliary excretion rate per kg l.w.,"i.v., 60-70 min",11.228 umoles/min per kg l.w.
same,umoles in bile sample,"i.v., 60-70 min",1.46 UMOLES
same,Bile flow,"i.v., 70-80 min",.02653 mL/min
same,Bile flow per kg b.w.,"i.v., 70-80 min",.06099 ml/min per kg b.w.
same,Bile flow per kg l.w.,"i.v., 70-80 min",2.038 ml/min per kg l.w.
same,Biliary excretion rate,"i.v., 70-80 min",.141 µmol/min
same,Biliary excretion rate per kg b.w.,"i.v., 70-80 min",.324 umoles/min per kg b.w.
same,Biliary excretion rate per kg l.w.,"i.v., 70-80 min",10.811 umoles/min per kg l.w.
same,umoles in bile sample,"i.v., 70-80 min",1.41 UMOLES
same,Bile flow,"i.v., 80-90 min",.02586 mL/min
same,Bile flow per kg b.w.,"i.v., 80-90 min",.05945 ml/min per kg b.w.
same,Bile flow per kg l.w.,"i.v., 80-90 min",1.986 ml/min per kg l.w.
same,Biliary excretion rate,"i.v., 80-90 min",.121 µmol/min
same,Biliary excretion rate per kg b.w.,"i.v., 80-90 min",.277 umoles/min per kg b.w.
same,Biliary excretion rate per kg l.w.,"i.v., 80-90 min",9.262 umoles/min per kg l.w.
same,umoles in bile sample,"i.v., 80-90 min",1.21 UMOLES
same,Bile flow,[1],.02093 mL/min
same,Bile flow per kg b.w.,[1],.04811 ml/min per kg b.w.
same,Bile flow per kg l.w.,[1],1.608 ml/min per kg l.w.
same,Biliary excretion rate,[1],.013 µmol/min
same,Biliary excretion rate per kg b.w.,[1],.031 umoles/min per kg b.w.
same,Biliary excretion rate per kg l.w.,[1],1.021 umoles/min per kg l.w.
same,umoles in bile sample,[1],.13 UMOLES
same,umoles running total in bile,"i.v., through 0-10 min",1.36 UMOLES
same,umoles running total in bile,"i.v., through 10-20 min",3.48 UMOLES
same,umoles running total in bile,"i.v., through 20-30 min",6.09 UMOLES
same,umoles running total in bile,"i.v., through 30-40 min",8.42 UMOLES
same,umoles running total in bile,"i.v., through 40-50 min",10.75 UMOLES
same,umoles running total in bile,"i.v., through 50-60 min",13.13 UMOLES
same,umoles running total in bile,"i.v., through 60-70 min",14.60 UMOLES
same,umoles running total in bile,"i.v., through 70-80 min",16.00 UMOLES
same,umoles running total in bile,"i.v., through 80-90 min",17.21 UMOLES
same,umoles running total in bile,"i.v., through period printed 10-0 min (pre-injection)",.13 UMOLES
same,rate of biliary excretion relative to IOP,"i.v., vs IOP, FIG. 8",approximately twice
same,dose excreted at 10 min,"Percentage of dose in bile sample, 0-10 min",2.82%
same,dose excreted at 20 min,"Percentage of dose in bile sample, 10-20 min",4.88%
same,dose excreted at 0.5 h,"Percentage of dose in bile sample, 20-30 min",5.99%
same,dose excreted at 40 min,"Percentage of dose in bile sample, 30-40 min",5.37%
same,dose excreted at 50 min,"Percentage of dose in bile sample, 40-50 min",5.35%
same,dose excreted at 1 h,"Percentage of dose in bile sample, 50-60 min",5.48%
same,dose excreted at 70 min,"Percentage of dose in bile sample, 60-70 min",3.36%
same,dose excreted at 80 min,"Percentage of dose in bile sample, 70-80 min",3.24%
same,dose excreted at 1.5 h,"Percentage of dose in bile sample, 80-90 min",2.77%
same,dose excreted at 0 h,"Percentage of dose in bile sample, period 10-0 min (pre-injection)",0.31%
same,dose excreted at 10 min,"Percentage of dose running total in bile, through 0-10 min",3.12%
same,dose excreted at 20 min,"Percentage of dose running total in bile, through 10-20 min",8%
same,dose excreted at 0.5 h,"Percentage of dose running total in bile, through 20-30 min",14%
same,dose excreted at 40 min,"Percentage of dose running total in bile, through 30-40 min",19.4%
same,dose excreted at 50 min,"Percentage of dose running total in bile, through 40-50 min",24.7%
same,dose excreted at 1 h,"Percentage of dose running total in bile, through 50-60 min",30.2%
same,dose excreted at 70 min,"Percentage of dose running total in bile, through 60-70 min",33.6%
same,dose excreted at 80 min,"Percentage of dose running total in bile, through 70-80 min",36.8%
same,dose excreted at 1.5 h,"Percentage of dose running total in bile, through 80-90 min",39.6%
same,dose excreted at 0 h,"Percentage of dose running total in bile, through period printed 10-0 min (pre-injection)",0.31%
